Measured values published in patent publication US20230373937A1, “INHIBITORS OF SPINSTER HOMOLOG 2 (SPNS2) FOR USE IN THERAPY” (University of Virginia Patent Foundation, priority 2020, published 2023).
Where a name gives a salt, the structure may show the parent alone.

What follows are compounds tested against T1, SPNS2 (Mus musculus, UniProt Q91VM4) (assay: S1P transporter assay: S1P release from whole cells expressing SPNS2). Settings: HeLa or U937 cells expressing mouse SPNS2; 18 hours; S1P in media measured by LC-MS; read-out: IC50 (in vitro inhibition against SPNS2).
T1 construct: expressed in transfected cells; host or cells: HeLa or U937 cells
T1 sequence (Q91VM4 1-549): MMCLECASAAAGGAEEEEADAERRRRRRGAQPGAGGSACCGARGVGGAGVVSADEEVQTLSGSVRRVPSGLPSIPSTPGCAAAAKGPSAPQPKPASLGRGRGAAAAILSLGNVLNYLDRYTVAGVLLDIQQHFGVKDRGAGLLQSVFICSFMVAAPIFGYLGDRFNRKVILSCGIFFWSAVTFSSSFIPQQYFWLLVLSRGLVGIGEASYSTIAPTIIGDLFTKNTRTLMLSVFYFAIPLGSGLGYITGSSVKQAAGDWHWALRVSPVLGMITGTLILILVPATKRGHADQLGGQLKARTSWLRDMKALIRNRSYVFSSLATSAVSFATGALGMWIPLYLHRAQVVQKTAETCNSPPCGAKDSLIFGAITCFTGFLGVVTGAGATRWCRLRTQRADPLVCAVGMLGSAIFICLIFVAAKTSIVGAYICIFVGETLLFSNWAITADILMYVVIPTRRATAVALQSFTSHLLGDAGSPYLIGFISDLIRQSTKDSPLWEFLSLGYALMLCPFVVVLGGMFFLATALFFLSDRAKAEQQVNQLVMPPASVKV
Assay type: cell-based
Description: Transporter assays are vectorial and therefore require measurement of the transported analyte in different compartments. The S1P transporter SPNS2 only exports S1P, which obviates measuring uptake of S1P into transporter-expressing cells. Thus, transporter activity was determined by quantifying S1P release from whole cells expressing SPNS2. SPNS2 inhibitor potency was assessed using whole cell assays. HeLa or U937 cells expressing mouse SPNS2 were used to determine inhibitor potency (IC50). Cells were plated onto 12 well plates and assayed when the cell monolayers became confluent. Cell growth media (RPMI-1640 containing 10% fetal bovine serum) was replaced with 2 mL of serum-free media (RPMI-1640) containing fatty acid free bovine serum albumin (BSA) (0.2% w/v) and supplemented with 4-deoxypyridoxine (DOP) (1 mM), NaF (2 mM), Na3VO4 (0.2 mM) to inhibit S1P degradation. Test articles (1×10-9-1×10^-4 M) were assayed in duplicate or triplicate. After 18 hours, media was collected, an internal recovery standard (0.005 mL of 5×10^-7 M deuterated (d7) S1P in methanol) was added, the BSA was precipitated with trichloroacetic acid and the bound S1P extracted with methanol. S1P and S1P-d7 were measured by liquid chromatography mass spectrometry. Inhibitor potency at the human SPNS2 ortholog was determined by an analogous assay using U-937 cells, which endogenously express human SPNS2.

Row | Structure (SMILES) | IC50 [nM]
1 | CCCCCCCCc1ccc(CCc2noc(CCCN)n2)cc1 [Compound 5s, 3-(3-(4-octylphenethyl)-1,2,4-oxadiazol-5-yl)propan-1-amine hydrochloride] | > 2000
2 | CCCCCCCCCCc1ccc(-c2noc(CC(O)CN)n2)cc1 (stereo not shown) [Compound 5g, 1-amino-3-(3-(4-decylphenyl)-1,2,4-oxadiazol-5-yl)propan-2-ol hydrochloride] | > 2000
3 | CCCCCCCCCCc1ccc(-c2noc(CN)n2)cc1 [Compound 5f, (3-(4-decylphenyl)-1,2,4-oxadiazol-5-yl)methanamine 2,2,2-trifluoroacetate] | ≤ 2000
4 | CCCCCCCCCCc1ccc(-c2noc(CCCN3CCOCC3)n2)cc1 [Compound 6f, 4-(3-(3-(4-decylphenyl)-1,2,4-oxadiazol-5-yl)propyl)morpholine hydrochloride] | > 2000
5 | CCCCCCCCCOc1ccc(-c2noc(CCCN)n2)cc1 [Compound 5t, 3-(3-(4-(nonyloxy)phenyl)-1,2,4-oxadiazol-5-yl)propan-1-amine hydrochloride] | > 2000
6 | CCCCCCCCCCc1ccc(-c2noc(CC(O)CN3CCOCC3)n2)cc1 (stereo not shown) [Compound 6c, 1-(3-(4-decylphenyl)-1,2,4-oxadiazol-5-yl)-3-morpholinopropan-2-ol hydrochloride] | > 2000
7 | CCCCCCCCCCc1cccc(-c2noc(CCCN)n2)c1 [Compound 5j, 3-(3-(3-decylphenyl)-1,2,4-oxadiazol-5-yl)propan-1-amine hydrochloride] | ≤ 2000
8 | CCCCCCCOc1ccc2cc(-c3noc(CCCN)n3)ccc2c1 [Compound 5w, 3-(3-(6-(heptyloxy)naphthalen-2-yl)-1,2,4-oxadiazol-5-yl)propan-1-amine hydrochloride] | ≤ 2000
9 | CCCCCCCCCCc1ccc(-c2noc(CCCN3CCCC3)n2)cc1 [Compound 6d, 3-(4-decylphenyl)-5-(3-(pyrrolidin-1-yl)propyl)-1,2,4-oxadiazole hydrochloride] | > 2000
10 | CCCCCCCCCCc1ccc(-c2noc(C3CCNCC3)n2)cc1 [Compound 5a, 3-(4-decylphenyl)-5-(piperidin-4-yl)-1,2,4-oxadiazole 2,2,2-trifluoroacetate] | > 2000
11 | CCCCCCCCCCc1ccc(-c2noc(C(Cl)CCN)n2)cc1 (racemic) [Compound 5k, (±)-3-chloro-3-(3-(4-decylphenyl)-1,2,4-oxadiazol-5-yl)propan-1-amine hydrochloride] | > 2000
12 | CCCCCCCCCCc1ccc(-c2noc(CC(O)CN3CCCC3)n2)cc1 (stereo not shown) [Compound 6b, 1-(3-(4-decylphenyl)-1,2,4-oxadiazol-5-yl)-3-(pyrrolidin-1-yl)propan-2-ol hydrochloride] | > 2000
13 | CCCCCCCCCCc1ccc(-c2noc(CCCNC)n2)cc1 [Compound 5m, 3-(3-(4-decylphenyl)-1,2,4-oxadiazol-5-yl)-N-methylpropan-1-amine hydrochloride] | > 2000

Second part, the compound after the results:

Row | IC50 [nM] | Structure (SMILES)
14 | > 2000 | CCCCCCCCCCc1ccc(-c2noc(CNC(=O)[C@H]3CCCCN3)n2)cc1 [Compound 9t, (R)—N-((3-(4-decylphenyl)-1,2,4-oxadiazol-5-yl)methyl)piperidine-2-carboxamide hydrochloride]
15 | > 2000 | CCCCCCCCCCc1ccc(-c2noc(CNC(=O)[C@H]3CCNC3)n2)cc1 [Compound 9x, (S)—N-((3-(4-decylphenyl)-1,2,4-oxadiazol-5-yl)methyl)pyrrolidine-3-carboxamide hydrochloride]
16 | > 2000 | CCCCCCCCCCc1ccc(-c2noc(CNC(=O)C3(N)CC3)n2)cc1 [Compound 9af, 1-amino-N-((3-(4-decylphenyl)-1,2,4-oxadiazol-5-yl)methyl)cyclopropane-1-carboxamide hydrochloride]
17 | ≤ 2000 | CCCCCCCCCCc1ccc(-c2noc(CNC(=O)[C@@H]3CCCNC3)n2)cc1 [Compound 9ag, (R)—N-((3-(4-decylphenyl)-1,2,4-oxadiazol-5-yl)methyl)piperidine-3-carboxamide hydrochloride]
18 | ≤ 2000 | CCCCCCCCCCc1ccc(-c2noc(CCNC(=O)CN)n2)cc1 [Compound 9h, 2-amino-N-(2-(3-(4-decylphenyl)-1,2,4-oxadiazol-5-yl)ethyl)acetamide hydrochloride]
19 | > 2000 | CCCCCCCCCCc1ccc(-c2noc(CNC(=O)[C@@H](N)CC(C)C)n2)cc1 [Compound 9ad, (S)-2-amino-N-((3-(4-decylphenyl)-1,2,4-oxadiazol-5-yl)methyl)-4-methylpentanamide hydrochloride]
20 | > 2000 | CCCCCCCCCCc1ccc(-c2noc(CNC(=O)[C@H]3CNCCO3)n2)cc1 [Compound 9q, (R)—N-((3-(4-decylphenyl)-1,2,4-oxadiazol-5-yl)methyl)morpholine-2-carboxamide hydrochloride]
21 | > 2000 | CCCCCCCCCCc1ccc(-c2noc(CC(O)CNCC)n2)cc1 (stereo not shown) [Compound 7a, 1-(3-(4-decylphenyl)-1,2,4-oxadiazol-5-yl)-3-(ethylamino)propan-2-ol hydrochloride]
22 | ≤ 2000 | CCCCCCCCCCc1ccc(-c2noc(CNC(=O)[C@@H]3CCN3)n2)cc1 [Compound 9z, (S)—N-((3-(4-decylphenyl)-1,2,4-oxadiazol-5-yl)methyl)azetidine-2-carboxamide 2,2,2-trifluoroacetate]
23 | ≤ 2000 | CCCCCCCCCCc1ccc(-c2noc(CNC(=O)C[C@@H]3CCNC3)n2)cc1 [Compound 9k, (S)—N-((3-(4-decylphenyl)-1,2,4-oxadiazol-5-yl)methyl)-2-(pyrrolidin-3-yl)acetamide hydrochloride]
24 | ≤ 2000 | CCCCCCCCCCc1ccc(-c2noc(CNC(=O)[C@H](C)N)n2)cc1 [Compound 9a, (S)-2-amino-N-((3-(4-decylphenyl)-1,2,4-oxadiazol-5-yl)methyl)propanamide hydrochloride]
25 | ≤ 2000 | CCCCCCCCCCc1ccc(-c2noc([C@@H](N)CCCCN)n2)cc1 [Compound 19a, (S)-1-(3-(4-decylphenyl)-1,2,4-oxadiazol-5-yl)pentane-1,5-diamine hydrochloride]
26 | > 2000 | CCCCCCCCCCc1ccc(-c2noc(CNC(=O)[C@@H](N)CO)n2)cc1 [Compound 9s, (S)-2-amino-N-((3-(4-decylphenyl)-1,2,4-oxadiazol-5-yl)methyl)-3-hydroxypropanamide hydrochloride]
27 | > 2000 | CCCCCCCCCCc1ccc(-c2noc(CNC(=O)[C@@H]3C[C@@H](F)CN3)n2)cc1 [Compound 9ae, (2S,4R)—N-((3-(4-decylphenyl)-1,2,4-oxadiazol-5-yl)methyl)-4-fluoropyrrolidine-2-carboxamide hydrochloride]
28 | > 2000 | CCCCCCCCCCc1ccc(-c2noc(CNC(=O)C[C@@H]3CCCNC3)n2)cc1 [Compound 9o, (S)—N-((3-(4-decylphenyl)-1,2,4-oxadiazol-5-yl)methyl)-2-(piperidin-3-yl)acetamide hydrochloride]
29 | ≤ 2000 | CCCCCCCCCCc1ccc(-c2noc(CNC(=O)[C@@H]3CCCN3)n2)cc1 [Compound 9m, (S)—N-((3-(4-decylphenyl)-1,2,4-oxadiazol-5-yl)methyl)pyrrolidine-2-carboxamide hydrochloride]
30 | > 2000 | CCCCCCCCCCc1ccc(-c2noc([C@@H]3CCN(C(=O)[C@@H](N)CO)C3)n2)cc1 [Compound 9aj]
31 | > 2000 | CCCCCCCCCCc1ccc(-c2noc(CNC(=O)C[C@@H](O)CN)n2)cc1 [Compound 9y, (R)-4-amino-N-((3-(4-decylphenyl)-1,2,4-oxadiazol-5-yl)methyl)-3-hydroxybutanamide hydrochloride]
32 | > 2000 | CCCCCCCCCCc1ccc(-c2noc(CNC(=O)CN3CCNCC3)n2)cc1 [Compound 9c, N-((3-(4-decylphenyl)-1,2,4-oxadiazol-5-yl)methyl)-2-(piperazin-1-yl)acetamide hydrochloride]
33 | ≤ 2000 | CCCCCCCCCCc1ccc(-c2noc(CNC(=O)C3CCCCCN3)n2)cc1 (stereo not shown) [Compound 9u, N-((3-(4-decylphenyl)-1,2,4-oxadiazol-5-yl)methyl)azepane-2-carboxamide hydrochloride]
34 | > 2000 | CCCCCCCCCCc1ccc(-c2noc([C@@H]3CCN(C(=O)CN)C3)n2)cc1 [Compound 9al, (R)-2-amino-1-(3-(3-(4-decylphenyl)-1,2,4-oxadiazol-5-yl)pyrrolidin-1-yl)ethan-1-one 2,2,2-trifluoroacetate]
